According to paper PMC5552691, “Novel giardicidal compounds bearing proton pump inhibitor scaffold proceeding through triosephosphate isomerase inactivation” (Scientific Reports, 2017):

How the values were obtained:
[1] = biological target: T1, triosephosphate isomerase of G. lamblia (GlTIM) (Giardia intestinalis, UniProt P36186, C202A); assay: Inactivation assay of recombinant GlTIM (C202A variant); type: biochemical; settings: for Inactivation of GlTIM (in words): 2 hours at 37 °C; for kinact/KI: pH 7.4, read-out: Second-order rate constant of inactivation
T1 construct: His-tag (N, cleaved yes); TEV protease recognition site (N); made in house; host or cells: Escherichia coli
Description: We evaluated the effect of compounds incubating the enzyme with each one of them for 2 hours at 37 °C and the IC50 values were then calculated from the residual activity data.
GlTIM (200 µg/mL) was incubated with increasing concentrations of compounds. After 2 hours of incubation at 37 °C, the reactions were stopped by dilution and the remaining activity was determined as described in the material and methods section.
(§1) For all assays we used mutant GlTIM C202A in order to work with the dimeric form of enzyme; this mutant was referred in the paper as GlTIM and was prepared as described before. The recombinant GlTIM containing a His-tag in its NH-terminal together with a recognition region for tobacco […] virus protease, was expressed in Escherichia coli. The GlTIM purification was performed by using IMAC method; after His-tag was removed, the enzyme was stored at 4 °C in a buffer containing 100 mM triethanolamine, 10 mM EDTA, pH 7.4 (TE buffer). […] Mutant of GlTIM C222A and human TIM (HsTIM) were prepared as described before, [33]. Protein content of GlTIM and HsTIM was calculated by using a ε M ^−1cm^−1 of 26,600 and 32,595, respectively. For all assays, the enzymes were freshly prepared with no more of two weeks of storage.
TIM activity was determined in a Cary50 spectrophotometer (Varian) at 25 °C using coupling assay following the conversion of D-glyceraldehyde 3-phosphate to dihydroxyacetone phosphate as described before. The reaction mixture contained TE buffer (pH 7.4) supplemented with 0.2 mM NADH, 1 mM GAP, and 0.9 U of alpha-GDH. The reaction started by adding 5 ng/mL of TIM.
Omeprazole and compounds stock solutions were freshly prepared using 100% DMSO as solvent. […] The reaction was stopped by diluting the enzyme 40,000 times in TE buffer and then, the remaining activity was determined. The second-order rate constants of inactivation were calculated from obtaining the pseudo-first order rate constant (k 1) values at each fixed concentration of compounds by fitting them to an exponential decay. Then, the k 1 values were re-plotted against the employed concentrations of each compound; the second-order rate constant value of inactivation was obtained from the slope of these plots.

[2] = test system: G. lamblia WB trophozoites; assay: Susceptibility assay of Giardia trophozoites; type: cell-based, Giardia lamblia; settings: Giardia duodenalis; 48 hours at 37 °C with compound, then 48 hours in compound-free medium; ± standard error
Description: The anti-giardiasic ability of compounds was tested in an in vitro. […] Thus, for BHO2 and BHO3 the values (130 and 122 µM, respectively) were around of the half of that obtained for omeprazole (300 µM).
Figure 6 Anti-giardiasic activity of Compounds in trophozoites. Cultures of trophozoites (100,000 trophozoites/mL) were incubated during 48 hours at 37 °C with increasing concentrations of compounds. Afterward, samples were withdrawn and resuspended in a medium free of compounds. The samples were incubated for other 48 hours/37 °C and thereafter, the viability of trophozoites were quantified. The values represent ± standard deviation from three independent experiments.
We used the G. lamblia WB reference isolate in all experiments. The splitting method used to our susceptibility assays is described below. Cultures with 100,000 trophozoites/mL on TYI-S-33 medium were incubated during 48 hours at 37 °C supplemented with increasing concentrations of compounds ranging from 32.5 to 500 µM. Afterward, samples were chilled in ice for 15 minutes, washed with medium and resuspended in 50 µL of medium free of compounds and antibiotic. Then, trophozoites were diluted in 1 mL of medium free of compounds and antibiotic, incubated for 48 hours at 37 °C and then, the viability of trophozoites was manually quantified by using a Neubauer chamber; the viability percent and IC50 was subsequently calculated.

[3] = Cytotoxicity assay (MTT) in VERO cells; type: cell-based; settings: African green monkey, VERO cells (ATCC CCL-81); 24 hours, MTT; 95% confidence limits in square brackets
Description: (§2) The cytotoxic effect of these compounds was also evaluated in mammal cell cultures and their CC50 values calculated and depicted in Table 2.
(§3) We used the cell lines VERO (ATCC:CCL-81) and gingival human fibroblasts (kindly provided by Dra. María Dolores Farfán from Facultad de Odontología, Universidad Nacional Autónoma de México). The assay procedure is described below. Cells were maintained in a DMEM medium supplemented with antibiotic-antimycotic (1X), L-glutamine (1X) and 10% fetal bovine serum. Cells were incubated in 25 mL plastic culture flasks (Nunc) at 37 °C and 5% CO2. After the cell cultures grew to confluence, we determined the cell viability by using Trypan Blue method; then, cells were seeded at 4 × 10^4 cells/well in 100 µL culture medium during 24 hours. […] DMSO was maintained constant at 0.2%; a control was performed by incubating cells with this solvent concentration but in absence of compounds. After incubation time, we measured the cell viability by using MTT (3-(4,5-Dimethyl-2-thiazolyl)-2,5-diphenyl-2H-tetrazolium bromide; Roche Diagnostics) method. Briefly, 10 µL MTT (5 mg/mL) was added to cell cultures and incubated at 37 °C during four hours; then, 100 µL of solution containing 10% SDS and 0.01N HCl was added. Thereafter, the formazan products were spectrophotometrically quantified at 570 nm (Labxystem Uniskan, Manchester). The CC50 (median cytotoxicity concentration) and CI95 (95% confidence interval) values from each experiment were determined from the concentration-percentage plots of cell viability obtained by logistic regression. Statistical analysis was performed using the SPPSS software (version 17.0).

[4] = test system: VERO cells; assay: Cytotoxicity assay (MTT) in VERO cells; type: cell-based; settings: for CC50 mammal cells relative to IC50 for trophozoites: mammal cells: human fibroblasts and VERO cells together
Description: as §2, §3

[5] = test system: gingival human fibroblasts; assay: Cytotoxicity assay (MTT) in human fibroblasts; type: cell-based; settings: 24 hours, 95% confidence limits in square brackets
Description: as §2, §3

[6] = biological target: T2, GlTIM (Giardia intestinalis, UniProt P36186, C202A); assay: Quantification of free Cys of derivatized GlTIM (Ellman's reagent); type: biochemical, Giardia lamblia; settings: for Number of free Cys per monomer after treatment: GlTIM 6 mg/mL (214 µM), compound 1 mM, two hours at 37 °C; for Number of free Cys per monomer after treatment and then DTT: derivatized enzyme incubated with 5 mM DTT during 15 minutes
T2 construct: His-tag (N, cleaved yes); TEV protease recognition site (N); made in house; host or cells: Escherichia coli
Description: We evaluated the first option by determining the residual free Cys after derivatization with compounds and afterwards reducing agent treatment. Thus, 6 mg/mL (214 µM) of GlTIM was incubated with or without each one of compounds (1 mM) during two hours at 37 °C. It is important to remark that at the protein concentration used for this aim, a considerable quantity was precipitated. Therefore, the incubation of the samples was arrested by centrifuging and then filtration through a 3 mL Sephadex G-25 column, and the number of free Cys quantified from the soluble protein. […] In contrast, the number of Cys per monomer obtained for omeprazole, BHO2 and BHO3 treatment was respectively 2.02 ± 0.02, 1.9 ± 0.2 and 2.15 ± 015. […] An aliquot of each derivatized enzyme was withdrawn and incubated with 5 mM DTT during 15 minutes; then, the samples were filtered and the free Cys was again quantified. The number of Cys/monomer was 2.2 ± 0.2, 2,1 ± 0.22 and 1.8 ± 0.18 for omeprazole, BHO2 and BHO3, respectively.
To carry out the experiments, the derivatized GlTIM with different molecules was incubated with 2 mM DTT and then filtered through 3 mL Sephadex G-25 column to remove the unreacted compounds. All spectroscopic assays were carried out at protein concentration of 0.2 mg/mL (7 µM). Cysteine quantification was performed spectrophotometrically using de Ellman’s reagent as described before, [36]. Briefly, 200 µg of GlTIM were suspended in TE buffer supplemented with 5% SDS; after an incubation of 10 min at 25 °C, the enzyme was added to a cuvette containing 500 µL of TE buffer supplemented with 5% SDS and 1 mM DTNB. Cysteine quantification was done following the increase of absorbance at 412 nm, using an ε M ^−1 cm ^−1 of 13,600[36].

[7] = biological target: T3, human TIM (HsTIM) (Homo sapiens, UniProt P60174); assay: Inactivation assay of human TIM; type: biochemical
T3 construct: made in house
Description: as §1, with “For all assays, the enzymes were freshly prepared with no more of two weeks of storage.” left out
(§4) TIM activity was determined in a Cary50 spectrophotometer (Varian) at 25 °C using coupling assay following the conversion of D-glyceraldehyde 3-phosphate to dihydroxyacetone phosphate as described before. […]
(§5) Omeprazole and compounds stock solutions were freshly prepared using 100% DMSO as solvent. […] The reaction was stopped by diluting the enzyme 40,000 times in TE buffer and then, the remaining activity was determined. The second-order rate constants of inactivation were calculated from obtaining the pseudo-first order rate constant (k 1) values at each fixed concentration of compounds by fitting them to an exponential decay. […]

[8] = biological target: T1, triosephosphate isomerase of G. lamblia (GlTIM); settings: cited from earlier work
[9] = biological target: T4, mutant GlTIM C222A (Giardia intestinalis, UniProt P36186, C202A/C222A); assay: Inactivation assay of mutant GlTIM C222A; type: biochemical, Giardia lamblia
T4 construct: made in house
Description: as §1, with “For all assays, the enzymes were freshly prepared with no more of two weeks of storage.” left out
as §4, §5

[10] = Cytotoxicity assay (MTT) in human fibroblasts; type: cell-based; settings: human, gingival human fibroblasts, 95% confidence limits in square brackets
Description: as §2, §3

[11] = Solubility (remark in the discussion); type: physicochemical

T2 sequence (P36186 whole entry C202A): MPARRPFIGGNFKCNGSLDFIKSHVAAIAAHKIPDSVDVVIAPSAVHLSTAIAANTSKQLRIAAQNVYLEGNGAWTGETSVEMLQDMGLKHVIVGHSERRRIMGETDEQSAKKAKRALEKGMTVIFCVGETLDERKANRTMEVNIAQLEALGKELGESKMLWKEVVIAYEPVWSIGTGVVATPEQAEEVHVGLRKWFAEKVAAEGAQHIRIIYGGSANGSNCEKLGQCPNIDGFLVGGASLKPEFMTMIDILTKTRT
T1 sequence (P36186 whole entry C202A): as above
T4 sequence (P36186 whole entry C202A/C222A): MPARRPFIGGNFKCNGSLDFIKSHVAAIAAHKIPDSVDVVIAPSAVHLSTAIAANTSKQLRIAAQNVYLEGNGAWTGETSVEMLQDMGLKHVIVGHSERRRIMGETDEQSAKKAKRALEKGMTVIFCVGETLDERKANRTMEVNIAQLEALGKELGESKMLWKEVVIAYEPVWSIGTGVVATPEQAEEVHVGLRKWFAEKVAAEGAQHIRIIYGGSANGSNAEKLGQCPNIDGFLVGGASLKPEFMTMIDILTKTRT
T3 sequence (P60174 whole entry): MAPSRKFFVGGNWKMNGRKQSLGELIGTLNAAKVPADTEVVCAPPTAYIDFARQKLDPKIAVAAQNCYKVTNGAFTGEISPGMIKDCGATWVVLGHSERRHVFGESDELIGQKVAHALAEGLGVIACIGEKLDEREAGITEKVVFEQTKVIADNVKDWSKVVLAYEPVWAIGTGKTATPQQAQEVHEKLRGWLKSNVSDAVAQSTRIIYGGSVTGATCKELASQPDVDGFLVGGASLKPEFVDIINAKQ

| SMILES | IC50 [1] [µM] | Inactivation of GlTIM (in words) [1] | kinact/KI [1] [M⁻¹ s⁻¹] | IC50 [2] [µM] | CC50 at 24 h [3] [µM] | CC50 VERO cells relative to trophozoites cytotoxicity [4] [fold] | CC50 Human Fibroblasts [5] | CC50 Human Fibroblasts ([5]; listed as omeprazole) | Number of free Cys per monomer after treatment [6] [Cys/monomer] | Number of free Cys per monomer after treatment and then DTT [6] [Cys/monomer] | Inactivation of HsTIM (in words) [7] | Reversibility of GlTIM inhibition, reported before [8] | Second-order rate constant of inactivation, previously reported [8] [M⁻¹ s⁻¹] | Effect on activity of mutant GlTIM C222A (in words) [9] | melting point [°C] | Increase of reactivity against GlTIM respect to omeprazole [1] | Reversibility of GlTIM inhibition [1] | CC50 mammal cells relative to IC50 for trophozoites [4] | CC50 at 24 h [10] [µM] | Solubility respect to omeprazole [11] |
| --- | --- | --- | --- | --- | --- | --- | --- | --- | --- | --- | --- | --- | --- | --- | --- | --- | --- | --- | --- | --- |
| COc1ccc2[nH]c([S+]([O-])Cc3ncc(C)c(OC)c3C)nc2c1 (centres unmarked) [Omeprazole, omeprazole, reference compound] | 225 | inactivated the GlTIM completely | 0.78 ± 0.016 | 300 ± 10.2 | 14000 | 46 | No effect | did not show cytotoxic effect | 2.02 ± 0.02 | 2.2 ± 0.2 | unaffected | irreversible | 0.6 | affects marginally | – | – | – | – | – | – |
| Cc1ccc2nc([S+]([O-])Cc3nccc(OCC(F)(F)F)c3C)[nH]c2c1 (centres unmarked) [BHO3, 5(6)-Methyl-2-({[3-methyl-4-(2,2,2-trifluoroethoxy)pyridin-2-yl]methyl}sulfinyl]-1H-benzimidazole] | 100 | – | 1.2 ± 0.06 | 122 ± 1.7 | 4700 | – | – | – | 2.15 ± 015 | 1.8 ± 0.18 | – | – | – | – | 228.5 to 229.8 | two-fold | irreversibly | 38- to 61 fold | 5500 | – |
| Cc1ccc2nc([S+]([O-])Cc3ccccn3)[nH]c2c1 (centres unmarked) [BHO1, 5(6)-methyl-2-[(pyridin-2-ylmethyl)sulfinyl]−1H-benzimidazole] | – | inactivated scarcely | – | – | – | – | – | – | – | – | – | – | – | – | 121.3 to 122.9 | – | – | – | – | – |
| COc1c(C)cnc(C[S+]([O-])c2nc3ccc(C)cc3[nH]2)c1C (centres unmarked) [BHO2, 2-[(4-methoxy-3,5-dimethylpyridin-2-yl)methylsulfinyl]-5(6)-methyl-1H-benzimidazole] | 64 | – | 1.6 ± 0.1 | 130 | 8000 | – | – | – | 1.9 ± 0.2 | – | – | – | – | – | 221.4 to 222.8 | three-fold | irreversibly | 38- to 61 fold | 5000 | improved its solubility |
